Experiments:
[1] = Tolerability of intradiscal injection in pigs (behaviour, injection site by the naked eye); format: in vivo, pig; details: two pigs
Procedure: Two pigs were anesthetized and placed on their right side. Access to the L4-5 intervertebral disc was obtained through a lateral incision between the lowest rib and the iliac crest on the left side of each pig. Thereafter, the L3-4 intervertebral disc was incised with a scalpel.
The composition was injected in a single step at a single occasion.
At harvest, the pigs were killed.
The injection site was observed by the naked eye. […] The segment of the vertebral column extending from the lumbar vertebra L2 to the sacral vertebra S1 was removed. The facet joints were removed, thus allowing full flexibility of the discs with no restraints from other structures.

[2] = test system: disc space of the L3-4 intervertebral disc; test: Dimension of the disc space after local injection into the nucleus pulposus in a pig; format: in vivo; details: injected L3-4 disc compared with non-injected L2-3 and L4-5; FIG. 7
Procedure: 110. performing a cross-section of the discs and measuring the length (anterio-posterior direction) and the width (bilateral direction) of the disc space. Two pigs were anesthetized and placed on their right side. Access to the L4-5 intervertebral disc was obtained through a lateral incision between the lowest rib and the iliac crest on the left side of each pig. Thereafter, the L3-4 intervertebral disc was incised with a scalpel. […] The composition was injected in a single step at a single occasion. The intervertebral discs (L2-3, L3-4, L4-5) were cross-sectioned and the length of the disc space (anterio-posterior direction) and the width (bilateral direction) of the disc space were measured by calipers. In FIGS. 5 and 6, an intervertebral disc is schematically shown in cross-section. The intervertebral disc comprises the annulus fibrosus 10, and a disc space defined by the annulus fibrosus and comprising the nucleus pulposus 11.

CC(O)C(=O)O (stereo not drawn) [lactic acid]
Adverse reaction such as decreased mobility or vocalization ([1]; 0.2 mL of 1.34 mol/L into L3-4 nucleus pulposus, period of seven days until harvest): no adverse reaction | Adverse reaction at the injection site, such as bleedings, inflammation or necrosis ([1]; observed by the naked eye at harvest, seven days): No adverse reaction | Observation of the cross-sectioned disc space by the naked eye [2]: newly formed connective tissue in the disc space
